Reference: PMC3973950, “Synthesis of 5-arylidine amino-1,3,4-thiadiazol-2-[(N-substituted benzyol)]sulphonamides endowed with potent antioxidants and anticancer activity induces growth inhibition in HEK293, BT474 and NCI-H226 cells” (Medicinal Chemistry Research, 2013)

Tested on: not listed separately
Assay: In vitro cytotoxicity by MTT assay, HEK 293
Format: cell-based, human
Conditions: human, HEK 293 cells, 0.005 μM, read-out: % cytotoxicity (100 − % cell survival) of HEK 293 cell line
Protocol: (§1) The cancer cell line cultures of HEK 293 ([…]), BT474 (breast cancer cell line) and NCI-H226 (lung cancer) were obtained from Pasteur Institute of India, Coonoor, India, and were cultured in RPMI-1640 and 10 % heat-[…] New born calf serum with antibiotics [penicillin ([…]), streptomycin (100 μg/mL) and amphotericin B (25 μg/mL)]. The cells were maintained at 37 °C in a humidified atmosphere with 5 % CO2 and were subcultured twice a week.
(§2) The monolayer cell culture (100 μL) was trypsinized, and the cell count was adjusted to […] using medium containing 10 % new born calf serum. To each well of the 96-well microtitre plate, the diluted cell suspension (approximately 10,000 cells) (0.1 mL) was added and kept for 24 h in incubator at 37 °C in 5 % CO2 atmosphere for cell monolayer formation. After 24 h, when a partial monolayer was formed at the bottom of the well, the supernatant was flicked off, the monolayer was washed once, and different drugs, i.e. synthesized compounds (100 μL), were added to the cells in microtitre plates. The plates were then incubated at 37 °C for 3 days in 5 % CO2 atmosphere, and microscopic examination was carried out and observations recorded every 24 h. After 72 h, the sample solution in the wells was flicked off; MTT dye ([…]) was added to each well; plates were gently shaken and incubated for 4 h at 37 °C in 5 % CO2 incubator. The supernatant was removed and propanol (50 μL) was added; the plates were gently shaken to solubilize the formed formazan. The absorbance was measured using a microplate reader at a wavelength of 490 nm (Edmondson et al., [1988]; Prasad et al., [2005]; Chiruvella et al., [2008]; Chang et al., [2007]).

Structure (SMILES) | cytotoxicity at 72 h, 0.005 µM [%]
CC(=O)Nc1ccc(S(=O)(=O)Nc2nnc(S(=O)(=O)NC(=O)c3ccc(N)cc3)s2)cc1 [Compound 6c] | 30.5

Same assay, conditions: human, HEK 293 cells, 0.015 μM, read-out: % cytotoxicity (100 − % cell survival) of HEK 293 cell line

Structure (SMILES) | cytotoxicity at 72 h, 0.015 µM [%]
CC(=O)Nc1ccc(S(=O)(=O)Nc2nnc(S(=O)(=O)NC(=O)c3ccc(N)cc3)s2)cc1 [Compound 6c] | 32

Same assay, conditions: human, HEK 293 cells, 0.045 μM, read-out: % cytotoxicity (100 − % cell survival) of HEK 293 cell line

Structure (SMILES) | cytotoxicity at 72 h, 0.045 µM [%]
CC(=O)Nc1ccc(S(=O)(=O)Nc2nnc(S(=O)(=O)NC(=O)c3ccc(N)cc3)s2)cc1 [Compound 6c] | 32.9

Same assay, conditions: human, HEK 293 cells, 0.13 μM, read-out: % cytotoxicity (100 − % cell survival) of HEK 293 cell line

Structure (SMILES) | cytotoxicity at 72 h, 0.13 µM [%]
CC(=O)Nc1ccc(S(=O)(=O)Nc2nnc(S(=O)(=O)NC(=O)c3ccc(N)cc3)s2)cc1 [Compound 6c] | 33.6

Same assay, conditions: human, HEK 293 cells, 0.41 μM, read-out: % cytotoxicity (100 − % cell survival) of HEK 293 cell line

Structure (SMILES) | cytotoxicity at 72 h, 0.41 µM [%]
CC(=O)Nc1ccc(S(=O)(=O)Nc2nnc(S(=O)(=O)NC(=O)c3ccc(N)cc3)s2)cc1 [Compound 6c] | 34.8

Same assay, conditions: human, HEK 293 cells, 1.23 μM, read-out: % cytotoxicity (100 − % cell survival) of HEK 293 cell line

Structure (SMILES) | cytotoxicity at 72 h, 1.23 µM [%]
CC(=O)Nc1ccc(S(=O)(=O)Nc2nnc(S(=O)(=O)NC(=O)c3ccc(N)cc3)s2)cc1 [Compound 6c] | 35.7

Same assay, conditions: human, HEK 293 cells, 3.7 μM, read-out: % cytotoxicity (100 − % cell survival) of HEK 293 cell line

Structure (SMILES) | cytotoxicity at 72 h, 3.7 µM [%]
CC(=O)Nc1ccc(S(=O)(=O)Nc2nnc(S(=O)(=O)NC(=O)c3ccc(N)cc3)s2)cc1 [Compound 6c] | 36.6

Same assay, conditions: human, HEK 293 cells, 11.11 μM, read-out: % cytotoxicity (100 − % cell survival) of HEK 293 cell line

Structure (SMILES) | cytotoxicity at 72 h, 11.11 µM [%]
CC(=O)Nc1ccc(S(=O)(=O)Nc2nnc(S(=O)(=O)NC(=O)c3ccc(N)cc3)s2)cc1 [Compound 6c] | 37.8

Same assay, conditions: human, HEK 293 cells, 33.33 μM, read-out: % cytotoxicity (100 − % cell survival) of HEK 293 cell line

Structure (SMILES) | cytotoxicity at 72 h, 33.33 µM [%]
CC(=O)Nc1ccc(S(=O)(=O)Nc2nnc(S(=O)(=O)NC(=O)c3ccc(N)cc3)s2)cc1 [Compound 6c] | 38.2

Same assay, conditions: human, HEK 293 cells, 100 μM, read-out: % cytotoxicity (100 − % cell survival) of HEK 293 cell line

Structure (SMILES) | cytotoxicity at 72 h, 100 µM [%]
CC(=O)Nc1ccc(S(=O)(=O)Nc2nnc(S(=O)(=O)NC(=O)c3ccc(N)cc3)s2)cc1 [Compound 6c] | 38.8

Tested on: BT474 (breast cancer cell line)
Assay: In vitro cytotoxicity by MTT assay, BT474
Format: cell-based
Conditions: Homo sapiens, BT-474, 0.005 μM, 72 h, read-out: % cytotoxicity (100 − % cell survival) of BT474 cell line
Protocol: as §1, §2

Structure (SMILES) | cytotoxicity at 0.005 µM [%]
CC(=O)Nc1ccc(S(=O)(=O)Nc2nnc(S(=O)(=O)NC(=O)c3ccc(N)cc3)s2)cc1 [Compound 6c] | 33.1

Same assay, conditions: Homo sapiens, BT-474, 0.015 μM, 72 h, read-out: % cytotoxicity (100 − % cell survival) of BT474 cell line

Structure (SMILES) | cytotoxicity at 0.015 µM [%]
CC(=O)Nc1ccc(S(=O)(=O)Nc2nnc(S(=O)(=O)NC(=O)c3ccc(N)cc3)s2)cc1 [Compound 6c] | 33.3

Same assay, conditions: Homo sapiens, BT-474, 0.045 μM, 72 h, read-out: % cytotoxicity (100 − % cell survival) of BT474 cell line

Structure (SMILES) | cytotoxicity at 0.045 µM [%]
CC(=O)Nc1ccc(S(=O)(=O)Nc2nnc(S(=O)(=O)NC(=O)c3ccc(N)cc3)s2)cc1 [Compound 6c] | 34.1

Same assay, conditions: Homo sapiens, BT-474, 0.13 μM, 72 h, read-out: % cytotoxicity (100 − % cell survival) of BT474 cell line

Structure (SMILES) | cytotoxicity at 0.13 µM [%]
CC(=O)Nc1ccc(S(=O)(=O)Nc2nnc(S(=O)(=O)NC(=O)c3ccc(N)cc3)s2)cc1 [Compound 6c] | 35

Same assay, conditions: Homo sapiens, BT-474, 0.41 μM, 72 h, read-out: % cytotoxicity (100 − % cell survival) of BT474 cell line

Structure (SMILES) | cytotoxicity at 0.41 µM [%]
CC(=O)Nc1ccc(S(=O)(=O)Nc2nnc(S(=O)(=O)NC(=O)c3ccc(N)cc3)s2)cc1 [Compound 6c] | 35.4

Same assay, conditions: Homo sapiens, BT-474, 1.23 μM, 72 h, read-out: % cytotoxicity (100 − % cell survival) of BT474 cell line

Structure (SMILES) | cytotoxicity at 1.23 µM [%]
CC(=O)Nc1ccc(S(=O)(=O)Nc2nnc(S(=O)(=O)NC(=O)c3ccc(N)cc3)s2)cc1 [Compound 6c] | 36.7

Same assay, conditions: Homo sapiens, BT-474, 3.7 μM, 72 h, read-out: % cytotoxicity (100 − % cell survival) of BT474 cell line

Structure (SMILES) | cytotoxicity at 3.7 µM [%]
CC(=O)Nc1ccc(S(=O)(=O)Nc2nnc(S(=O)(=O)NC(=O)c3ccc(N)cc3)s2)cc1 [Compound 6c] | 37.1

Same assay, conditions: Homo sapiens, BT-474, 11.11 μM, 72 h, read-out: % cytotoxicity (100 − % cell survival) of BT474 cell line

Structure (SMILES) | cytotoxicity at 11.11 µM [%]
CC(=O)Nc1ccc(S(=O)(=O)Nc2nnc(S(=O)(=O)NC(=O)c3ccc(N)cc3)s2)cc1 [Compound 6c] | 37.9

Same assay, conditions: Homo sapiens, BT-474, 33.33 μM, 72 h, read-out: % cytotoxicity (100 − % cell survival) of BT474 cell line

Structure (SMILES) | cytotoxicity at 33.33 µM [%]
CC(=O)Nc1ccc(S(=O)(=O)Nc2nnc(S(=O)(=O)NC(=O)c3ccc(N)cc3)s2)cc1 [Compound 6c] | 38.2

Same assay, conditions: Homo sapiens, BT-474, 100 μM, 72 h, read-out: % cytotoxicity (100 − % cell survival) of BT474 cell line

Structure (SMILES) | cytotoxicity at 100 µM [%]
CC(=O)Nc1ccc(S(=O)(=O)Nc2nnc(S(=O)(=O)NC(=O)c3ccc(N)cc3)s2)cc1 [Compound 6c] | 39.4

Tested on: not listed separately
Assay: In vitro cytotoxicity by MTT assay, NCI-H226
Format: cell-based
Conditions: human, NCI-H226 lung cancer cells, 0.015 μM, read-out: % Cytotoxicity (100 − % cell survival) of NCI-H226 cell line
Protocol: as §1, §2

Structure (SMILES) | cytotoxicity at 72 h, 0.015 µM [%]
CC(=O)Nc1ccc(S(=O)(=O)Nc2nnc(S(=O)(=O)NC(=O)c3ccc(N)cc3)s2)cc1 [Compound 6c] | 32.8

Tested on: NCI-H226 (lung cancer cell line)
Assay: In vitro cytotoxicity by MTT assay, NCI-H226
Format: cell-based
Conditions: Homo sapiens, NCI-H226, 0.005 μM, 72 h, read-out: % Cytotoxicity (100 − % cell survival) of NCI-H226 cell line
Protocol: as §1, §2

Structure (SMILES) | cytotoxicity at 0.005 µM [%]
CC(=O)Nc1ccc(S(=O)(=O)Nc2nnc(S(=O)(=O)NC(=O)c3ccc(N)cc3)s2)cc1 [Compound 6c] | 30.4

Same assay, conditions: Homo sapiens, NCI-H226, 0.045 μM, 72 h, read-out: % Cytotoxicity (100 − % cell survival) of NCI-H226 cell line

Structure (SMILES) | cytotoxicity at 0.045 µM [%]
CC(=O)Nc1ccc(S(=O)(=O)Nc2nnc(S(=O)(=O)NC(=O)c3ccc(N)cc3)s2)cc1 [Compound 6c] | 33.6

Same assay, conditions: Homo sapiens, NCI-H226, 0.13 μM, 72 h, read-out: % Cytotoxicity (100 − % cell survival) of NCI-H226 cell line

Structure (SMILES) | cytotoxicity at 0.13 µM [%]
CC(=O)Nc1ccc(S(=O)(=O)Nc2nnc(S(=O)(=O)NC(=O)c3ccc(N)cc3)s2)cc1 [Compound 6c] | 34.1

Same assay, conditions: Homo sapiens, NCI-H226, 0.41 μM, 72 h, read-out: % Cytotoxicity (100 − % cell survival) of NCI-H226 cell line

Structure (SMILES) | cytotoxicity at 0.41 µM [%]
CC(=O)Nc1ccc(S(=O)(=O)Nc2nnc(S(=O)(=O)NC(=O)c3ccc(N)cc3)s2)cc1 [Compound 6c] | 34.8

Same assay, conditions: Homo sapiens, NCI-H226, 1.23 μM, 72 h, read-out: % Cytotoxicity (100 − % cell survival) of NCI-H226 cell line

Structure (SMILES) | cytotoxicity at 1.23 µM [%]
CC(=O)Nc1ccc(S(=O)(=O)Nc2nnc(S(=O)(=O)NC(=O)c3ccc(N)cc3)s2)cc1 [Compound 6c] | 34.9

Same assay, conditions: Homo sapiens, NCI-H226, 3.7 μM, 72 h, read-out: % Cytotoxicity (100 − % cell survival) of NCI-H226 cell line

Structure (SMILES) | cytotoxicity at 3.7 µM [%]
CC(=O)Nc1ccc(S(=O)(=O)Nc2nnc(S(=O)(=O)NC(=O)c3ccc(N)cc3)s2)cc1 [Compound 6c] | 35.1

Same assay, conditions: Homo sapiens, NCI-H226, 11.11 μM, 72 h, read-out: % Cytotoxicity (100 − % cell survival) of NCI-H226 cell line

Structure (SMILES) | cytotoxicity at 11.11 µM [%]
CC(=O)Nc1ccc(S(=O)(=O)Nc2nnc(S(=O)(=O)NC(=O)c3ccc(N)cc3)s2)cc1 [Compound 6c] | 36.5

Same assay, conditions: Homo sapiens, NCI-H226, 33.33 μM, 72 h, read-out: % Cytotoxicity (100 − % cell survival) of NCI-H226 cell line

Structure (SMILES) | cytotoxicity at 33.33 µM [%]
CC(=O)Nc1ccc(S(=O)(=O)Nc2nnc(S(=O)(=O)NC(=O)c3ccc(N)cc3)s2)cc1 [Compound 6c] | 38.3

Same assay, conditions: Homo sapiens, NCI-H226, 100 μM, 72 h, read-out: % Cytotoxicity (100 − % cell survival) of NCI-H226 cell line

Structure (SMILES) | cytotoxicity at 100 µM [%]
CC(=O)Nc1ccc(S(=O)(=O)Nc2nnc(S(=O)(=O)NC(=O)c3ccc(N)cc3)s2)cc1 [Compound 6c] | 39
